According to patent US12410208B2, “(2-acetamidyl)thio-beta-D-galactopyranoside derivatives” (Idorsia Pharmaceuticals Ltd, priority 2020, dated 2025):
pIC50: −log10 of the molar value. Read-outs that look alike come from different tables or passages of the source.

How the values were obtained:
[1] = biological target: human Gal-1 (hGal-1) (Homo sapiens, UniProt P09382); test: Competitive binding assay: biotinylated hGal-1 binding to microplate-adsorbed asialofetuin (ASF), spectrophotometric; conditions: hGal-1 binding to asialofetuin; Table 15; R and S epimers of selected Examples also listed; read-out: IC50 (Galectin-1 inhibition)
In short: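 Spectrophotometric competition readout with ABTS after streptavidin-peroxidase (80 ng/mL, 1 h, 4 °C) detection of bound biotinylated hGal-1.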

[2] = biological target: biotinylated human Gal-3 (hGal-3) (Homo sapiens, UniProt P17931); test: Competitive binding assay: biotinylated hGal-3 binding to microplate-adsorbed asialofetuin (ASF), spectrophotometric
In short: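 Serially diluted compounds competed with asialofetuin on the plate for biotinylated human Gal-3 during a 3 h incubation at 4° C. Streptavidin-peroxidase with ABTS gave the spectrophotometric signal. IC50 values were averaged over repeat runs.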

[3] = Gal-3 inhibition, Table 5, read-out: IC50
[4] = Gal-3 inhibition, Table 4, read-out: IC50
[5] = Gal-3 inhibition, Table 3, read-out: IC50

human Gal-1 (hGal-1), sequence (P09382 whole entry): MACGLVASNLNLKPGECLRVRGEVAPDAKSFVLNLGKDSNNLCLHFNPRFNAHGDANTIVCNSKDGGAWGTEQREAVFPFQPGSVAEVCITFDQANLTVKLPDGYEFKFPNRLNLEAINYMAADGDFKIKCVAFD
biotinylated human Gal-3 (hGal-3), sequence (P17931 whole entry): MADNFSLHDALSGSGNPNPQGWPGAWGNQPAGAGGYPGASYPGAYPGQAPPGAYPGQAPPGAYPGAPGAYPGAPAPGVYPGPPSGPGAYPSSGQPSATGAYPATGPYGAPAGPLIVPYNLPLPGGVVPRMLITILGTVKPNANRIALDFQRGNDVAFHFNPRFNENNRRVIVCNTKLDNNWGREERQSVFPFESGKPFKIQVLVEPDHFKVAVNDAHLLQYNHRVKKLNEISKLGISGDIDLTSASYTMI

Compound	pIC50 [1]	pIC50 [2, 3]	also measured
CN(CC1CC1)C(=O)[C@H](S[C@@H]1O[C@H](CO)[C@H](O)[C@H](n2cc(-c3cc(F)c(F)c(F)c3)nn2)[C@H]1O)C1(O)CC(F)(F)C1 [Example 2.33.218R., (R)-N-(Cyclopropylmethyl)-2-(3,3-difluoro-1-hydroxycyclobutyl)-2-(((2S,3R,4S,5R,6R)-3,5-dihydroxy-6-(hydroxymethyl)-4-(4-(3,4,5-trifluorophenyl)-1H-1,2,3-triazol-1-yl)tetrahydro-2H-pyran-2-yl)thio)-N-methylacetamide]	6.24	6.36	–
CCN(C)C(=O)[C@@H](S[C@@H]1O[C@H](CO)[C@H](O)[C@H](n2cc(-c3cc(F)c(F)c(F)c3)nn2)[C@H]1O)C1CCOCC1 [Example 2.56.203S., (S)-2-(((2S,3R,4S,5R,6R)-3,5-dihydroxy-6-(hydroxymethyl)-4-(4-(3,4,5-trifluorophenyl)-1H-1,2,3-triazol-1-yl)tetrahydro-2H-pyran-2-yl)thio)-N-ethyl-N-methyl-2-(tetrahydro-2H-pyran-4-yl)acetamide, reference compound]	4.44	–	pIC50 ([2]; Gal-3 inhibition, Table 1 (Reference Examples), read-out: IC50): 5.16
O=C([C@H](S[C@@H]1O[C@H](CO)[C@H](O)[C@H](n2cc(-c3cc(F)c(F)c(F)c3)nn2)[C@H]1O)C1(O)CCC1)N1CCCCC1 [Example 2.34.208R., (R)-2-(((2S,3R,4S,5R,6R)-3,5-Dihydroxy-6-(hydroxymethyl)-4-(4-(3,4,5-trifluorophenyl)-1H-1,2,3-triazol-1-yl)tetrahydro-2H-pyran-2-yl)thio)-2-(1-hydroxycyclobutyl)-1-(piperidin-1-yl)ethan-1-one]	4.94	5.49	–
CCN(C)C(=O)[C@H](S[C@@H]1O[C@H](CO)[C@H](O)[C@H](n2cc(-c3cc(F)c(F)c(F)c3)nn2)[C@H]1O)C1(O)CCOCC1 [Example 2.41.203R., (R)-2-(((2S,3R,4S,5R,6R)-3,5-Dihydroxy-6-(hydroxymethyl)-4-(4-(3,4,5-trifluorophenyl)-1H-1,2,3-triazol-1-yl)tetrahydro-2H-pyran-2-yl)thio)-N-ethyl-2-(4-hydroxytetrahydro-2H-pyran-4-yl)-N-methylacetamide]	< 4.40	5.35	–
CN(CC1CC1)C(=O)[C@@H](S[C@@H]1O[C@H](CO)[C@H](O)[C@H](n2cc(-c3cc(F)c(F)c(F)c3)nn2)[C@H]1O)C1(O)CCOCC1 [Example 2.41.218S., (S)-N-(Cyclopropylmethyl)-2-(((2S,3R,4S,5R,6R)-3,5-dihydroxy-6-(hydroxymethyl)-4-(4-(3,4,5-trifluorophenyl)-1H-1,2,3-triazol-1-yl)tetrahydro-2H-pyran-2-yl)thio)-2-(4-hydroxytetrahydro-2H-pyran-4-yl)-N-methylacetamide]	7.30	–	pIC50 [2, 4]: 7.70
CN(CC1CC1)C(=O)C(S[C@@H]1O[C@H](CO)[C@H](O)[C@H](n2cc(-c3cc(F)c(F)c(F)c3)nn2)[C@H]1O)C1(O)CCOCC1 (stereo partly drawn) [Example 2.41.218., N-(Cyclopropylmethyl)-2-(((2S,3R,4S,5R,6R)-3,5-dihydroxy-6-(hydroxymethyl)-4-(4-(3,4,5-trifluorophenyl)-1H-1,2,3-triazol-1-yl)tetrahydro-2H-pyran-2-yl)thio)-2-(4-hydroxytetrahydro-2H-pyran-4-yl)-N-methylacetamide]	6.72	–	pIC50 [2, 4]: 6.10
O=C([C@H](S[C@@H]1O[C@H](CO)[C@H](O)[C@H](n2cc(-c3cc(F)c(F)c(F)c3)nn2)[C@H]1O)C1(O)CCOCC1)N1CCCCC1 [Example 2.41.208R., (R)-2-(((2S,3R,4S,5R,6R)-3,5-Dihydroxy-6-(hydroxymethyl)-4-(4-(3,4,5-trifluorophenyl)-1H-1,2,3-triazol-1-yl)tetrahydro-2H-pyran-2-yl)thio)-2-(4-hydroxytetrahydro-2H-pyran-4-yl)-1-(piperidin-1-yl)ethan-1-one]	4.49	–	pIC50 [2, 4]: 5.78
CN(C(=O)C(S[C@@H]1O[C@H](CO)[C@H](O)[C@H](n2cc(-c3cc(F)c(F)c(F)c3)nn2)[C@H]1O)C1(O)CCOCC1)C1COC1 (stereo partly drawn) [Example 2.41.235., 2-(((2S,3R,4S,5R,6R)-3,5-Dihydroxy-6-(hydroxymethyl)-4-(4-(3,4,5-trifluorophenyl)-1H-1,2,3-triazol-1-yl)tetrahydro-2H-pyran-2-yl)thio)-2-(4-hydroxytetrahydro-2H-pyran-4-yl)-N-methyl-N-(oxetan-3-yl)acetamide]	7.05	7.22	–
CN1CCC(O)(C(S[C@@H]2O[C@H](CO)[C@H](O)[C@H](n3cc(-c4cc(F)c(F)c(F)c4)nn3)[C@H]2O)C(=O)N2CCCCC2)CC1 (stereo partly drawn) [Example 2.40.208., 2-(((2S,3R,4S,5R,6R)-3,5-Dihydroxy-6-(hydroxymethyl)-4-(4-(3,4,5-trifluorophenyl)-1H-1,2,3-triazol-1-yl)tetrahydro-2H-pyran-2-yl)thio)-2-(4-hydroxy-1-methylpiperidin-4-yl)-1-(piperidin-1-yl)ethan-1-one]	7.30	–	pIC50 [2, 4]: 7.52
CCN(CC)C(=O)C(S[C@@H]1O[C@H](CO)[C@H](O)[C@H](n2cc(-c3cc(F)c(F)c(F)c3)nn2)[C@H]1O)C(C)(C)O (stereo partly drawn) [Example 2.31.202., 2-(((2S,3R,4S,5R,6R)-3,5-Dihydroxy-6-(hydroxymethyl)-4-(4-(3,4,5-trifluorophenyl)-1H-1,2,3-triazol-1-yl)tetrahydro-2H-pyran-2-yl)thio)-N,N-diethyl-3-hydroxy-3-methylbutanamide]	5.56	–	pIC50 [2, 5]: 6.80
CC(C)(O)C(S[C@@H]1O[C@H](CO)[C@H](O)[C@H](n2cc(-c3cc(F)c(F)c(F)c3)nn2)[C@H]1O)C(=O)N1CCC1 (stereo partly drawn) [Example 2.31.206., 1-(Azetidin-1-yl)-2-(((2S,3R,4S,5R,6R)-3,5-dihydroxy-6-(hydroxymethyl)-4-(4-(3,4,5-trifluorophenyl)-1H-1,2,3-triazol-1-yl)tetrahydro-2H-pyran-2-yl)thio)-3-hydroxy-3-methylbutan-1-one]	5.85	–	pIC50 [2, 5]: 6.70
CN(Cc1ccccc1)C(=O)C(S[C@@H]1O[C@H](CO)[C@H](O)[C@H](n2cc(-c3cc(F)c(F)c(F)c3)nn2)[C@H]1O)C1(O)CCOCC1 (stereo partly drawn) [Example 2.41.207., N-Benzyl-2-(((2S,3R,4S,5R,6R)-3,5-dihydroxy-6-(hydroxymethyl)-4-(4-(3,4,5-trifluorophenyl)-1H-1,2,3-triazol-1-yl)tetrahydro-2H-pyran-2-yl)thio)-2-(4-hydroxytetrahydro-2H-pyran-4-yl)-N-methylacetamide]	7.14	–	pIC50 [2, 4]: 7.15
CN(C)C(=O)C(S[C@@H]1O[C@H](CO)[C@H](O)[C@H](n2cc(-c3cc(F)c(F)c(F)c3)nn2)[C@H]1O)C1(O)CCC(F)(F)CC1 (mixture of isomers) [Example 2.44.201., 2-(4,4-Difluoro-1-hydroxycyclohexyl)-2-(((2S,3R,4S,5R,6R)-3,5-dihydroxy-6-(hydroxymethyl)-4-(4-(3,4,5-trifluorophenyl)-1H-1,2,3-triazol-1-yl)tetrahydro-2H-pyran-2-yl)thio)-N,N-dimethylacetamide]	6.64	7.00	–
CCN(C)C(=O)C(S[C@@H]1O[C@H](CO)[C@H](O)[C@H](n2cc(-c3cc(F)c(F)c(F)c3)nn2)[C@H]1O)C1(O)CCCCC1 (stereo partly drawn) [Example 2.39.203., 2-(((2S,3R,4S,5R,6R)-3,5-Dihydroxy-6-(hydroxymethyl)-4-(4-(3,4,5-trifluorophenyl)-1H-1,2,3-triazol-1-yl)tetrahydro-2H-pyran-2-yl)thio)-N-ethyl-2-(1-hydroxycyclohexyl)-N-methylacetamide]	6.77	7.15	–
CO[C@@H]1[C@@H](n2cc(-c3cc(F)c(F)c(F)c3)nn2)[C@@H](O)[C@@H](CO)O[C@H]1S[C@@H](C(=O)N1CCC(F)(F)CC1)C1(O)CCC2(CCOCC2)CC1 [Example 2.72.226R.I., (R)-1-(4,4-Difluoropiperidin-1-yl)-2-(((2S,3R,4S,5R,6R)-5-hydroxy-6-(hydroxymethyl)-3-methoxy-4-(4-(3,4,5-trifluorophenyl)-1H-1,2,3-triazol-1-yl)tetrahydro-2H-pyran-2-yl)thio)-2-(9-hydroxy-3-oxaspiro[5.5]undecan-9-yl)ethan-1-one]	4.40	–	pIC50 ([2]; Table 13, hGal-3, read-out: IC50 (Gal-3 inhibition)): 4.83
CCN(CC1CC1)C(=O)C(S[C@@H]1O[C@H](CO)[C@H](O)[C@H](n2cc(-c3cc(F)c(F)c(F)c3)nn2)[C@H]1O)C1(O)CCOCC1 (stereo partly drawn) [Example 2.41.236., N-(Cyclopropylmethyl)-2-(((2S,3R,4S,5R,6R)-3,5-dihydroxy-6-(hydroxymethyl)-4-(4-(3,4,5-trifluorophenyl)-1H-1,2,3-triazol-1-yl)tetrahydro-2H-pyran-2-yl)thio)-N-ethyl-2-(4-hydroxytetrahydro-2H-pyran-4-yl)acetamide]	5.00	5.35	–
CO[C@@H]1[C@@H](n2cc(-c3cc(F)c(F)c(F)c3)nn2)[C@@H](O)[C@@H](CO)O[C@H]1SC(C(=O)N1CCOCC1)C1(O)CCC(F)(F)CC1 (stereo partly drawn) [Example 2.44.244.I., 2-(4,4-Difluoro-1-hydroxycyclohexyl)-2-(((2S,3R,4S,5R,6R)-5-hydroxy-6-(hydroxymethyl)-3-methoxy-4-(4-(3,4,5-trifluorophenyl)-1H-1,2,3-triazol-1-yl)tetrahydro-2H-pyran-2-yl)thio)-1-morpholinoethan-1-one]	7.00	–	pIC50 ([2]; Table 12, hGal-3, read-out: IC50 (Gal-3 inhibition)): 7.15
